Results published in US20100155657A1, “AQUEOUS COMPOSITION CONTAINING FLUORINATED SULFONAMIDE AND SULFONAMIDATE COMPOUNDS” (3M Innovative Properties Company, priority 2008, published 2010).

Key:
[1] = calculated neutralization equilibrium constant Kn for deprotonation of sulfonamide with ammonia; type: physicochemical; details: for Kn: RfSO2NHX + NH3 -> RfSO2N(-)X + NH4+, pKa of ammonium 9.24 at 25 °C; for K(RfSO2NHX): acid dissociation constant of the sulfonamide, from pKa
Method: The equilibrium between a sulfonamide and its conjugate sulfamidate anion is determined by the both the pKa of the sulfonamide and the pKb (i.e., the pKa of the conjugate acid of the base).
NH3+RfSO2NHX→NH4^++RfSO2N^(−)X
The neutralization equilibrium constant Kn can be expressed as
Kn can also be expressed as: […]

[2] = determined experimentally

| Kn [1] | K(RfSO2NHX) [1] | pKa [2] | SMILES |
| --- | --- | --- | --- |
| 467 | 2.69 × 10^−7 | – | O=S(=O)(NCCO)C(F)(F)C(F)(F)C(F)(F)C(F)(F)F [X = CH2CH2OH, CF3CF2CF2CF2SO2NHCH2CH2OH] |
| – | – | 8.15 | CCNS(=O)(=O)C(F)(F)C(F)(F)C(F)(F)C(F)(F)F [X = CH2CH3] |
| 52 | 3.01 × 10^−8 | – | CNS(=O)(=O)C(F)(F)C(F)(F)C(F)(F)C(F)(F)F [X = CH3, CF3CF2CF2CF2SO2NHCH3] |
| 1800 | 1.05 × 10^−6 | – | NS(=O)(=O)C(F)(F)C(F)(F)C(F)(F)C(F)(F)F [X = H, CF3CF2CF2CF2SO2NH2] |
